Assay results taken from patent US9409952B2, “Peptide-compound cyclization method” (Chugai Seiyaku Kabushiki Kaisha, priority 2011, dated 2016).
Read-outs that look alike come from different tables or passages of the source. Starred links: 1 amine or outer side, 2 acyl side, 3 side chain; linkers in the order of their positions; H or OH if unused. Positions of bridges follow the written chain, without caps; N, C: chain ends. Non-standard residues stand in square brackets, D forms with d. Residues, ends and D or L forms follow the SMILES beside them. *: point of attachment. Phe(4-CF3) = N[C@@H](Cc1ccc(C(F)(F)F)cc1)C(=O)O; Ala(4-thiazolyl) = N[C@@H](Cc1cscn1)C(=O)O; Tyr(3-F) = N[C@@H](Cc1ccc(O)c(F)c1)C(=O)O; NMeF = CN[C@@H](Cc1ccccc1)C(=O)O; NMeI = CC[C@H](C)[C@H](NC)C(=O)O; NMeβAla = CN(CCC(=O)[*:2])[*:1]; NMeL = CN[C@@H](CC(C)C)C(=O)O; NMeV = CN[C@H](C(=O)O)C(C)C; NMeA = CN[C@@H](C)C(=O)O; Piperidide = C1CCN(*)CC1; dNMeA = CN[C@H](C)C(=O)O; β3hA = C[C@H](N)CC(=O)O; Sar = CNCC(=O)O; tBu = CC(C)(C)*

Assays:
[1] = PAMPA (parallel artificial membrane permeability assay); assay type: in vitro ADME; conditions: PAMPA
Outline: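 Artificial membrane was 10% (w/v) egg lecithin plus 0.5% (w/v) cholesterol in dodecane on a PVDF filter. A 10 mM DMSO stock was added at 0.5% (v/v) to donor buffer (50 mM MOPSO, pH 6.5, 5.0% glycocholic acid). After 18 h at 37 °C, LC/MS or LC/UV gave donor and acceptor levels for Pe.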

[2] = Metabolic stability in human hepatic microsome; assay type: in vitro ADME; conditions: microsomes
[3] = membrane permeation rate (Pe), 50 mM MOPSO buffer pH 6.5 with 5.0% glycocholic acid, 37° C., 18 hours, read-out: iPAMPA Pe
[4] = pH 7.4, human hepatic microsome, NADPH(+), read-out: CL NADPH(+)

Row | Structure (SMILES) | Papp at 18 hours, 50 µM [1, 3] | microsomal CLint at 1 uM [2, 4] | Papp at 18 hours, 50 µM ([1]; pH 6.5) | microsomal CLint at 1 uM ([2]; human, pH 7.4, CL NADPH(+))
1 | CC(C)C[C@@H]1NC(=O)[C@H](CC(C)C)N(C)C(=O)[C@H](C)N(C)C(=O)[C@@H](C(C)C)NC(=O)C[C@@H](C(=O)N2CCCCC2)NC(=O)[C@H]([C@@H](C)O)NC(=O)[C@H](C)N(C)C(=O)[C@H](C)N(C)C(=O)[C@H](CC(C)C)N(C)C(=O)[C@H](Cc2ccc(O)c(F)c2)NC(=O)[C@H](Cc2ccccc2)N(C)C1=O [DP-619] ([dV][NMeA][NMeL]L[NMeF][Tyr(3-F)][NMeL][NMeA][NMeA]TD-Piperidide; lactam N-11) | 12 ×10⁻⁶ cm/s | 29 µL/min/mg | – | –
2 | CC[C@H](C)[C@H]1C(=O)N[C@@H](COC(C)(C)C)C(=O)N(C)[C@@H](Cc2ccccc2)C(=O)N(C)[C@@H](C(C)C)C(=O)N[C@@H](C)CC(=O)N(C)[C@@H](C)C(=O)N(C)[C@@H](Cc2ccccc2)C(=O)N[C@@H](CC(C)C)C(=O)N(C)[C@@H](CC(C)C)C(=O)N[C@@H]([C@@H](C)O)C(=O)N(C)CC(=O)N1C [DP-771] (cyclo(L[NMeL]T[Sar][NMeI]S(tBu)[NMeF][NMeV][β3hA][NMeA][NMeF])) | – | – | 47 ×10⁻⁶ cm/s | 228 µL/min/mg
3 | CC[C@H](C)[C@@H]1NC(=O)[C@H](C)N(C)C(=O)[C@H]([C@@H](C)O)NC(=O)[C@H](C(C)C)N(C)C(=O)[C@H](CC(C)C)NC(=O)[C@H](CC(C)C)N(C)C(=O)CN(C)C(=O)C[C@@H](C(=O)N2CCCCC2)NC(=O)[C@H](C)NC(=O)[C@H](Cc2ccccc2)NC(=O)[C@H](Cc2ccccc2)N(C)C1=O [DP-245] ([Sar][NMeL]L[NMeV]T[NMeA]I[NMeF]FAD-Piperidide; lactam N-11) | 31 ×10⁻⁶ cm/s | 71 µL/min/mg | – | –
4 | CC(C)C[C@@H]1NC(=O)[C@H](CC(C)C)N(C)C(=O)[C@H](C)N(C)C(=O)[C@@H](C(C)C)NC(=O)C[C@@H](C(=O)N2CCCCC2)NC(=O)[C@H](CCC(=O)N(C)C)NC(=O)[C@H](CC(C)C)N(C)C(=O)[C@H](C)N(C)C(=O)[C@H](CC(C)C)N(C)C(=O)[C@H](Cc2ccccc2)NC(=O)[C@H](Cc2ccccc2)N(C)C1=O [DP-618] ([dV][NMeA][NMeL]L[NMeF]F[NMeL][NMeA][NMeL]E(NMe2)D-Piperidide; lactam N-11) | 28 ×10⁻⁶ cm/s | 39 µL/min/mg | – | –
5 | CC[C@H](C)[C@@H]1NC(=O)[C@H](CC(C)C)N(C)C(=O)[C@H](C)NC(=O)CN(C)C(=O)[C@H](Cc2ccc(C(F)(F)F)cc2)NC(=O)[C@H]([C@@H](C)O)NC(=O)[C@H](CC(C)C)N(C)C(=O)CCN(C)C(=O)C[C@H](C)NC(=O)[C@H](CC(C)C)N(C)C(=O)[C@H](CC(C)C)N(C)C1=O [DP-805] (cyclo(A[NMeL]I[NMeL][NMeL][β3hA][NMeβAla][NMeL]T[Phe(4-CF3)][Sar])) | 41 ×10⁻⁶ cm/s | 169 µL/min/mg | – | –
6 | CC[C@H](C)[C@@H]1NC(=O)[C@H](C)N(C)C(=O)[C@H](C)N(C)C(=O)[C@H]([C@@H](C)O)NC(=O)[C@H](CC(C)C)N(C)C(=O)[C@H](CC(C)C)NC(=O)[C@H](Cc2ccccc2)N(C)C(=O)[C@@H](C)NC(=O)C[C@@H](C(=O)N(C)[C@@H](Cc2ccccc2)C(=O)N[C@@H](C)C(=O)N2CCCCC2)NC(=O)[C@H](C(C)C)N(C)C(=O)[C@H](Cc2ccccc2)N(C)C1=O [DP-180] ([dA][NMeF]L[NMeL]T[NMeA][NMeA]I[NMeF][NMeV]D[NMeF]A-Piperidide; lactam N-11) | 23 ×10⁻⁶ cm/s | 35 µL/min/mg | – | –
7 | CC[C@H](C)[C@@H]1NC(=O)[C@H](CC(C)C)N(C)C(=O)CN(C)C(=O)[C@H]([C@@H](C)O)NC(=O)[C@@H](C)N(C)C(=O)C[C@@H](C(=O)N2CCCCC2)NC(=O)[C@H](CC(C)C)N(C)C(=O)[C@H](Cc2ccccc2)N(C)C(=O)[C@H](CC(C)C)N(C)C1=O [DP-512] ([dNMeA]T[Sar][NMeL]I[NMeL][NMeF][NMeL]D-Piperidide; lactam N-9) | 18 ×10⁻⁶ cm/s | 62 µL/min/mg | – | –
8 | CC[C@H](C)[C@H]1C(=O)N(C)[C@@H](CC(C)C)C(=O)N[C@@H](Cc2ccccc2)C(=O)N[C@@H]([C@@H](C)O)C(=O)N[C@@H](CC(C)C)C(=O)N(C)[C@@H](Cc2ccccc2)C(=O)N(C)[C@@H](C(C)C)C(=O)N[C@H](C(=O)N2CCC[C@H]2C(=O)N[C@H](C(=O)N[C@@H](C)C(=O)N2CCCCC2)C(C)C)CC(=O)N[C@H](C)C(=O)N[C@@H](C)C(=O)N1C [DP-671] ([dA]A[NMeI][NMeL]FTL[NMeF][NMeV]DPVA-Piperidide; lactam N-10) | 16 ×10⁻⁶ cm/s | 39 µL/min/mg | – | –
9 | CC(C)C[C@H]1C(=O)NCC(=O)N[C@H](C(=O)N(C)[C@@H](Cc2ccccc2)C(=O)N(C)[C@@H](Cc2ccccc2)C(=O)N[C@@H](C)C(=O)N2CCCCC2)CC(=O)N[C@@H](C)C(=O)N[C@@H]([C@@H](C)O)C(=O)N(C)[C@@H](C)C(=O)N(C)[C@@H](Cc2ccccc2)C(=O)N[C@@H](C(C)C)C(=O)N(C)[C@@H](Cc2ccccc2)C(=O)N1C [DP-396] (AT[NMeA][NMeF]V[NMeF][NMeL]GD[NMeF][NMeF]A-Piperidide; lactam N-9) | – | – | 55 ×10⁻⁶ cm/s | 141 µL/min/mg
10 | CC(C)C[C@H]1C(=O)N[C@@H](COC(C)(C)C)C(=O)N[C@H](C(=O)N2CCCCC2)CC(=O)N[C@@H](C)C(=O)N(C)[C@@H](C)C(=O)N(C)[C@@H](Cc2ccccc2)C(=O)N(C)[C@@H](CC(C)C)C(=O)N[C@@H]([C@@H](C)O)C(=O)N(C)CC(=O)N1C [DP-38] (A[NMeA][NMeF][NMeL]T[Sar][NMeL]S(tBu)D-Piperidide; lactam N-9) | – | – | 16 ×10⁻⁶ cm/s | 55 µL/min/mg
11 | CC[C@H](C)[C@H]1C(=O)N[C@@H]([C@@H](C)O)C(=O)N(C)CC(=O)N(C)[C@@H](CC(C)C)C(=O)N[C@H](C(=O)N2CCCCC2)CC(=O)N(C)[C@H](C)C(=O)N[C@@H](CC(C)C)C(=O)N(C)[C@@H](CC(C)C)C(=O)N(C)[C@@H](Cc2ccccc2)C(=O)N[C@@H](C)C(=O)N(C)[C@@H](Cc2ccccc2)C(=O)N1C [DP-105] ([dNMeA]L[NMeL][NMeF]A[NMeF][NMeI]T[Sar][NMeL]D-Piperidide; lactam N-11) | – | – | 45 ×10⁻⁶ cm/s | 60 µL/min/mg
12 | CC(C)C[C@@H]1NC(=O)[C@H]([C@@H](C)O)NC(=O)[C@H](CC(C)C)NC(=O)[C@H](CC(C)C)N(C)C(=O)[C@H](Cc2ccccc2)NC(=O)[C@H](Cc2ccccc2)NC(=O)[C@H](C)N(C)C(=O)C[C@@H](C(=O)N2CCCCC2)NC(=O)[C@H](Cc2ccccc2)N(C)C(=O)CNC1=O [DP-116] ([NMeA]FF[NMeL]LTLG[NMeF]D-Piperidide; lactam N-10) | 23 ×10⁻⁶ cm/s | 333 µL/min/mg | – | –
13 | CC(C)C[C@H]1C(=O)N[C@@H](C(C)C)C(=O)N[C@H](C(=O)N(C)[C@@H](Cc2ccccc2)C(=O)N[C@@H](C)C(=O)N2CCCCC2)CC(=O)N[C@H](C(C)C)C(=O)N(C)[C@@H](Cc2ccccc2)C(=O)N(C)[C@@H](C)C(=O)N(C)[C@@H](CC(C)C)C(=O)N[C@@H]([C@@H](C)O)C(=O)N(C)CC(=O)N1C [DP-198] ([dV][NMeF][NMeA][NMeL]T[Sar][NMeL]VD[NMeF]A-Piperidide; lactam N-9) | 36 ×10⁻⁶ cm/s | 34 µL/min/mg | – | –
14 | CC(C)C[C@@H]1NC(=O)[C@H](CC(C)C)N(C)C(=O)[C@H](C)N(C)C(=O)[C@@H](C(C)C)NC(=O)C[C@@H](C(=O)N2CCCCC2)NC(=O)[C@H]([C@@H](C)O)NC(=O)[C@H](Cc2ccccc2)N(C)C(=O)[C@H](C)N(C)C(=O)[C@H](CC(C)C)N(C)C(=O)[C@H](Cc2cscn2)NC(=O)[C@H](Cc2ccccc2)N(C)C1=O [DP-625] ([dV][NMeA][NMeL]L[NMeF][Ala(4-thiazolyl)][NMeL][NMeA][NMeF]TD-Piperidide; lactam N-11) | 26 ×10⁻⁶ cm/s | 27 µL/min/mg | – | –
15 | CC[C@H](C)[C@H]1C(=O)N[C@@H](Cc2ccccc2)C(=O)N[C@H](C(=O)N2CCCCC2)CC(=O)N(C)CCC(=O)N(C)[C@@H](C(C)C)C(=O)N[C@@H](Cc2ccccc2)C(=O)N[C@@H](CC(C)C)C(=O)N(C)[C@@H](C)C(=O)N[C@@H]([C@@H](C)O)C(=O)N[C@@H](CC(C)C)C(=O)N(C)[C@@H](CC(C)C)C(=O)NCC(=O)N1C [DP-221] ([NMeβAla][NMeV]FL[NMeA]TL[NMeL]G[NMeI]FD-Piperidide; lactam N-12) | 31 ×10⁻⁶ cm/s | 75 µL/min/mg | – | –
16 | CC[C@H](C)[C@H]1C(=O)N(C)[C@@H](Cc2ccccc2)C(=O)N[C@@H](CC(C)C)C(=O)N[C@H](C(=O)N2CCCCC2)CC(=O)N(C)CCC(=O)N(C)[C@@H](CC(C)C)C(=O)N[C@@H]([C@@H](C)O)C(=O)N(C)[C@@H](Cc2ccccc2)C(=O)N(C)[C@@H](CC(C)C)C(=O)N[C@@H](C)C(=O)N(C)[C@@H](CC(C)C)C(=O)N1C [DP-104] ([NMeβAla][NMeL]T[NMeF][NMeL]A[NMeL][NMeI][NMeF]LD-Piperidide; lactam N-11) | – | – | 6.7 ×10⁻⁶ cm/s | 29 µL/min/mg
17 | CC(C)C[C@H]1C(=O)N[C@H](C(=O)N2CCCCC2)CC(=O)N[C@H](C)C(=O)N(C)[C@@H](CC(C)C)C(=O)N(C)[C@@H](Cc2ccccc2)C(=O)N(C)[C@@H](CC(C)C)C(=O)N[C@@H]([C@@H](C)O)C(=O)N1C [DP-740] ([dA][NMeL][NMeF][NMeL]T[NMeL]D-Piperidide; lactam N-7) | 31 ×10⁻⁶ cm/s | 483 µL/min/mg | – | –
18 | CC(C)C[C@H]1C(=O)N[C@H](C(=O)N2CCCCC2)CC(=O)N[C@H](C)C(=O)N(C)[C@@H](C)C(=O)N(C)[C@@H](Cc2ccccc2)C(=O)N(C)[C@@H](CC(C)C)C(=O)N[C@@H]([C@@H](C)O)C(=O)N1C [DP-739] ([dA][NMeA][NMeF][NMeL]T[NMeL]D-Piperidide; lactam N-7) | 18 ×10⁻⁶ cm/s | 164 µL/min/mg | – | –
